How the values were obtained:
[1] = target: T1, LXRβ full length (FL) (Homo sapiens, UniProt P55055, INS174Q); assay: LXR Gal4 reporter transient transfection assay, mammalian two-hybrid, FL-M2H Gal4β; type: cell-based; conditions: HEK293 cells; inverse agonist unless *
T1 construct: the full length (FL) proteins of LXRα (amino acids 1-447); NP005684; NP009052; expressed in transfected cells; host or cells: HEK293
T1 sequence (P55055 with tags, fused parts or gaps INS174Q): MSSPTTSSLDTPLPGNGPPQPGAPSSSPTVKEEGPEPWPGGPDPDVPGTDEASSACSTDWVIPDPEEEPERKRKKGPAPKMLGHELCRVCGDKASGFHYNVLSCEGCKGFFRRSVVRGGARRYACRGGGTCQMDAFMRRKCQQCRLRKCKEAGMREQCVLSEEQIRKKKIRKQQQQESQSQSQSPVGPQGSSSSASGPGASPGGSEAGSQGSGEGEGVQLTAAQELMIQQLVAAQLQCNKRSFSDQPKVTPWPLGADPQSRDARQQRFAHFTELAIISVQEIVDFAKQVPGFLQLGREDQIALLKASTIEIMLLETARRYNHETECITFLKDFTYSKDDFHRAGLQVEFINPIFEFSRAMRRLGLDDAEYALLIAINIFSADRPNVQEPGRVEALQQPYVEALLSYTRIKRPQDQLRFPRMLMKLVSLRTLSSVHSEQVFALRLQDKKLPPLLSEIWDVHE
Outline: (§1)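 HEK293 cells transiently cotransfected with NFkB-AD fusions of full-length or LBD LXRα/β, GAL4-DBD fusions of SRC1 coactivator or NCoR corepressor domains, GAL4-driven firefly luciferase and Renilla control. Compound added 4 h post-transfection (≤0.2% DMSO), 16 h incubation; firefly and Renilla luminescence read sequentially.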

[2] = target: T2, LXRα full length (FL) (Homo sapiens, UniProt Q13133); assay: LXR Gal4 reporter transient transfection assay, mammalian two-hybrid, FL-M2H Gal4α; type: cell-based; conditions: HEK293 cells; inverse agonist unless *
T2 construct: the full length (FL) proteins of LXRα (amino acids 1-447); NP005684; expressed in transfected cells; host or cells: HEK293
T2 sequence (Q13133 1-447): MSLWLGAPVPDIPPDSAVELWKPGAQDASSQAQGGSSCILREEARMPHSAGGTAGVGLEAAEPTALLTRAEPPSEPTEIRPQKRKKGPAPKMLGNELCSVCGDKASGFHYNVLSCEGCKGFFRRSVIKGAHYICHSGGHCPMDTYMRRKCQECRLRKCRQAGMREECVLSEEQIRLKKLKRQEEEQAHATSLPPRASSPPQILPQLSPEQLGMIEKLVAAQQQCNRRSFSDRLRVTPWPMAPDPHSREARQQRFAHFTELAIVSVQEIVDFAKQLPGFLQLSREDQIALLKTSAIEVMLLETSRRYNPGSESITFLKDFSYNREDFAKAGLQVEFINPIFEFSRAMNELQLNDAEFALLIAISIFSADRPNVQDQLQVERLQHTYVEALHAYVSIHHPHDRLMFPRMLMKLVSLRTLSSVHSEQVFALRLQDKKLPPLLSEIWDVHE
Outline: as §1

| Structure (SMILES) | EC50 [1] [nM] | EC50 [2] [nM] |
| --- | --- | --- |
| Cc1cc(C)c(C(=O)N(Cc2ccc(-c3cccc(C(C)(C)C(=O)O)c3)cc2)Cc2ccc(C(F)(F)F)o2)c(C)c1 [10/1] | < 100 | < 100 |
| COc1ccc2c(c1CN(Cc1ccc(-c3cccc(C(C)(C)C(=O)O)c3)cc1)Cc1ccc(C(F)(F)F)o1)CCCC2 [27/17] | < 100 | < 100 |
| CCOC(=O)c1ccc(CN(Cc2ccc(-c3cccc(C(C)(C)C(=O)O)c3)cc2)C(=O)c2c(C)ccc3ccccc23)o1 [27/28] | < 100 | < 100 |
| Cc1ccc2ccccc2c1C(=O)N(Cc1ccc(-c2cccc(C(C)(C)C(=O)O)c2)cc1)Cc1ccc(C#N)o1 [27/38] | < 100 | 100 to 1000 |
| COc1ccc2c(c1C(=O)N(Cc1ccc(-c3cccc(C(C)(C)C(=O)O)c3)cc1)Cc1ccc(C(F)(F)F)o1)CCCC2 [27/45] | < 100 | < 100 |
| COc1c(C)nc2ccccc2c1C(=O)N(Cc1ccc(-c2cccc(C(C)(C)C(=O)O)c2)cc1)Cc1ccc(C(F)(F)F)o1 [27/81] | < 100 | < 100 |
| Cc1nc2cccnc2c(C(=O)N(Cc2ccc(-c3cccc(C(C)(C)C(=O)O)c3)cc2)Cc2ccc(C(F)(F)F)o2)c1C [27/93] | < 100 | < 100 |
| Cc1ccc2ccccc2c1CN(Cc1ccc(-c2cccc(C(C)(C)C(=O)O)c2)cc1)Cc1ccc(C(F)(F)F)o1 [Example 24, 2-Methyl-2-(4′-((((2-methylnaphthalen-1-yl)methyl)((5-(trifluoromethyl)furan-2-yl)methyl)amino)methyl)-[1,1′-biphenyl]-3-yl)propanoic acid] | < 100 | < 100 |

Further lines, results first:

| EC50 [1] [nM] | EC50 [2] [nM] | Structure (SMILES) |
| --- | --- | --- |
| < 100 | < 100 | Cc1ccc2ccccc2c1C(=O)N(Cc1ccc(-c2cccc([C@@H](C)C(=O)O)c2)cc1)Cc1ccc(C(F)(F)F)o1 [10/5] |
| < 100 | < 100 | Cc1ccc2ccccc2c1C(=O)N(Cc1ccc(C(F)(F)F)o1)Cc1ccc(-c2cccc(C(C)(C)C(=O)O)c2)cc1C#N [27/7] |
| < 100 | < 100 | Cc1ccc2ccccc2c1C(=O)N(Cc1ccc(-c2cccc(C(C)(O)C(=O)O)c2)cc1)Cc1ccc(C(F)(F)F)o1 (centres unmarked) [27/10] |
| < 100 | < 100 | Cc1ccc2ccccc2c1C(=O)N(Cc1ccc(-c2cccc(C(C)(C)C(=O)O)c2)cc1)Cc1ccc(C(F)(F)F)o1 [27/26] |
| < 100 | < 100 | Cc1ccc2ccccc2c1C(=O)N(Cc1ccc(-c2cccc(C(C)(C)C(=O)O)c2)cc1)Cc1ccc(C(F)F)o1 [27/36] |
| < 100 | < 100 | CCc1nc2ccccc2c(C(=O)N(Cc2ccc(-c3cccc(C(C)(C)C(=O)O)c3)cc2)Cc2ccc(C(F)(F)F)o2)c1C [27/43] |
| < 100 | < 100 | CC(C)(C(=O)O)c1cccc(-c2ccc(CN(Cc3ccc(C(F)(F)F)o3)C(=O)c3c4ccccc4cc4ccccc34)cc2)c1 [27/47] |
| < 100 | < 100 | COc1cc(-c2cccc(C(C)(C)C(=O)O)c2)ccc1CN(Cc1ccc(C(F)(F)F)o1)C(=O)c1c(C)ccc2ccccc12 [27/66] |
| < 100 | < 100 | Cc1ccc2ccccc2c1C(=O)N(Cc1ccc(-c2cc(F)cc(C3(C(=O)O)CC3)c2)cc1)Cc1ccc(C(F)(F)F)o1 [27/76] |
| < 100 | < 100 | Cc1ccc2ccccc2c1C(=O)N(Cc1ccc(C(F)(F)F)o1)Cc1ncc(-c2cccc(C(C)(C)C(=O)O)c2)cc1Cl [27/78] |
| < 100 | < 100 | Cc1nc2ccccc2c(C(=O)N(Cc2ccc(-c3cccc(C(C)(C)C(=O)O)c3)cc2)Cc2ccc(C(F)(F)F)o2)c1C [27/79] |
